From US4275071A, “Imidazole derivatives” (Recordati S.A., priority 1978, dated 1981)
Where two headings read alike, the source gives them in different places.

What was measured:
[1] = tested on: pentylenetetrazol (Metrazol) seizure in mice; test: Subcutaneous pentylenetetrazol (Metrazol) seizure threshold test (MET) in the mouse; assay type: in vivo; conditions: 1 h, read-out: ED50 - MET
[2] = tested on: maximum electroshock seizure in mice; test: Maximum electroshock seizure test (MES) in the mouse; assay type: in vivo, mouse (albino race); conditions: read-out: ED50 - MES
in vivo = conditions: mouse, in vivo
Description: (§1) As to MET, it is known that pentylene-tetrazol (metrazol) administered subcutaneously to mice in a loose fold of skin on the back of the neck, produces seizures. […] Failure to observe even a threshold seizure is defined as protection. In the same table the LD50 values (lethal dose 50), evaluated in the mouse both I.p. and per os, are given.

mouse = test: in vivo; conditions: i.p.
Description: as §1

[3] = ip, mouse, i.p., electroshock 60 Hz, 0.2 sec, 25 mA, 30 or 60 minutes after administration
[4] = po, mouse, os, electroshock 60 Hz, 0.2 sec, 25 mA, 30 or 60 minutes after administration
[5] = ip, mouse, i.p., pentylenetetrazol 130 mg/Kg s.c. 30 minutes after administration, observed 60 minutes
[6] = po, mouse, os, pentylenetetrazol 130 mg/Kg s.c. 60 minutes after administration, observed 60 minutes

Structure (SMILES)	ED50 ([1]; Mus musculus, ip)	ED50 ([1]; Mus musculus, po)	ED50 [2, 3]	ED50 [2, 4]	ED50 ([2]; Mus musculus, ip)	ED50 ([2]; Mus musculus, po)	LD50 (in vivo; ip)	LD50 (in vivo; po)	LD50 (mouse)	ED50 [1, 5]	ED50 [1, 6]
OC(Cn1ccnc1)c1ccc(CCc2ccccc2)cc1 (stereo not drawn) [15/1533, 4-[1"-hydroxy-2"-(N-imidazolyl)-ethyl]-bibenzyl]	9 mg/kg	10 mg/kg	10 mg/kg	12 mg/kg	–	–	–	–	–	–	–
O=C(Cn1ccnc1)c1ccc(C2CCCCC2)cc1 [15/1803]	18 mg/kg	32 mg/kg	–	–	66 mg/kg	92 mg/kg	–	–	–	–	–
Cc1cc(C)c(C)c(C(=O)Cn2ccnc2)c1C [Compound 1323, 3-(N-imidazolyl-acetyl)-durene]	19 mg/kg	28 mg/kg	–	–	18 mg/kg	33 mg/kg	420 mg/kg	1.17 mg/kg	–	–	–
O=C(Cn1ccnc1)c1ccc(-c2ccccc2)cc1 [Compound 1341, 4-(N-imidazolyl-acetyl)-biphenyl]	28 mg/kg	10 mg/kg	–	–	54 mg/kg	76 mg/kg	–	–	–	–	–
OC(Cn1ccnc1)c1ccc(-c2ccccc2)cc1 (stereo not drawn) [Compound 1342, 4-[1"-hydroxy-2"-(N-imidazolyl)-ethyl]-biphenyl]	25 mg/kg	20 mg/kg	–	–	25 mg/kg	25 mg/kg	1.15 mg/kg	–	–	–	–
Cc1c(C)c([N+](=O)[O-])c(C)c(C)c1C(=O)Cn1ccnc1 [Compound 1429, 3-(N-imidazolyl-acetyl)-6-nitro-durene]	100 mg/kg	52 mg/kg	75 mg/kg	54 mg/kg	–	–	–	–	–	–	–
CC(C)CCSc1ccc(C(O)Cn2ccnc2)cc1 (stereo not drawn) [Compound 1455]	19 mg/kg	22 mg/kg	15 mg/kg	31 mg/kg	–	–	420 mg/kg	–	–	–	–
Cc1c(C)c(C(=O)Cn2ccnc2)c(C)c(C)c1Br [Compound 1457, 3-(N-imidazolyl-acetyl)-6-bromo-durene]	90 mg/kg	57 mg/kg	–	–	180 mg/kg	190 mg/kg	–	–	–	–	–
CC(C)(C(=O)c1ccc(-c2ccccc2)cc1)n1ccnc1 [Compound 1488, 4-[2"-methyl-2"-(N-imidazolyl)-propionyl]-biphenyl]	25 mg/kg	37 mg/kg	–	–	30 mg/kg	34 mg/kg	–	1.87 mg/kg	–	–	–
O=C(CCn1ccnc1)c1ccc(-c2ccccc2)cc1 [Compound 1490, 4-[3"-(N-imidazolyl)-propionyl]-biphenyl]	15 mg/kg	30 mg/kg	–	–	60 mg/kg	36 mg/kg	–	–	360 mg/kg	–	–
CC(C)(C(O)c1ccc(-c2ccccc2)cc1)n1ccnc1 (stereo not drawn) [Compound 1492]	–	–	24 mg/kg	27 mg/kg	–	–	420 mg/kg	2400 mg/kg	–	10 mg/kg	14 mg/kg
Cc1c(C)c(C(O)Cn2ccnc2)c(C)c(C)c1Cl (stereo not drawn) [Compound 1515, 3-[1'-hydroxy-2'-(N-imidazolyl)-ethyl]-6-chloro-durene]	150 mg/kg	75 mg/kg	300 mg/kg	150 mg/kg	–	–	–	–	–	–	–
Cc1c(C)c(C)c(C(O)Cn2ccnc2)c(C)c1C (stereo not drawn) [Compound 1516, 3-[1'-hydroxy-2'-(N-imidazolyl)-ethyl]-6-methyl-durene]	–	–	46 mg/kg	57 mg/kg	–	–	655 mg/kg	1800 mg/kg	–	13 mg/kg	35 mg/kg
Cc1c(C)c(C(=O)Cn2ccnc2)c(C)c(C)c1Cl [Compound 1517, 3-(N-imidazolyl-acetyl)-6-chloro-durene]	150 mg/kg	150 mg/kg	80 mg/kg	80 mg/kg	–	–	–	–	–	–	–
Cc1c(C)c(C)c(C(=O)Cn2ccnc2)c(C)c1C [Compound 1518, 3-(N-imidazolyl-acetyl)-6-methyl-durene]	23 mg/kg	50 mg/kg	13 mg/kg	45 mg/kg	–	–	–	1800 mg/kg	–	–	–
O=C(Cn1ccnc1)c1ccc(CCc2ccccc2)cc1 [Compound 1532, 4-(N-imidazolyl-acetyl)-bibenzyl]	11 mg/kg	17 mg/kg	–	–	11 mg/kg	37 mg/kg	–	1.55 mg/kg	300 mg/kg	–	–
OC(Cn1ccnc1)c1ccc(C2CCCCC2)cc1 (stereo not drawn) [Compound 1534, 1-[1'-hydroxy-2'-(N-imidazolyl)-ethyl]-4-cyclohexyl-benzene]	–	–	50 mg/kg	60 mg/kg	–	–	490 mg/kg	2700 mg/kg	–	25 mg/kg	27 mg/kg
CC(C(O)c1ccc(Sc2ccccc2)cc1)n1ccnc1 (stereo not drawn) [Compound 1540]	39 mg/kg	150 mg/kg	–	–	155 mg/kg	150 mg/kg	–	–	–	–	–
CC(C)(C(O)c1ccc(Sc2ccccc2)cc1)n1ccnc1 (stereo not drawn) [Compound 1541]	23 mg/kg	135 mg/kg	–	–	50 mg/kg	190 mg/kg	–	–	–	–	–
O=C(OC(Cn1ccnc1)c1ccc(-c2ccccc2)cc1)c1ccccc1 (stereo not drawn) [Compound 1575, 4-[1"-benzoyloxy-2"-(N-imidazolyl)-ethyl]-biphenyl]	27 mg/kg	62 mg/kg	66 mg/kg	135 mg/kg	–	–	–	1300 mg/kg	–	–	–
O=C(CCn1ccnc1)c1ccc(CCc2ccccc2)cc1 [Compound 1585]	25 mg/kg	25 mg/kg	–	–	25 mg/kg	100 mg/kg	–	–	–	–	–
C(=Cn1ccnc1)c1ccc(-c2ccccc2)cc1 [Compound 1598, 4-(N-imidazolyl-vinylene)-biphenyl]	69 mg/kg	80 mg/kg	–	–	185 mg/kg	145 mg/kg	–	–	–	–	–
O=C1NC(=O)C(c2ccccc2)(c2ccccc2)N1 [Diphenylidantoin, diphenylidantoin, reference compound]	–	–	6 mg/kg	10 mg/kg	–	–	–	–	–	6 mg/kg	5 mg/kg
CCC1(c2ccccc2)C(=O)NC(=O)NC1=O [Phenobarbital, phenobarbital, reference compound]	9 mg/kg	10 mg/kg	–	–	14 mg/kg	18 mg/kg	242 mg/kg	245 mg/kg	–	–	–
